Assay results taken from patent publication US20250108054A1, “METHODS FOR TREATING PERSISTENT OR CHRONIC IMMUNE THROMBOCYTOPENIA IN CHILDREN, ADOLESCENTS AND ADULTS BY ADMINISTERING (R)-2-[3-[4-AMINO-3-(2-FLUORO-4-PHENOXY-PHENYL)PYRAZOLO[3,4-D]PYRIMIDIN-1-YL]PIPERIDINE-1-CARBONYL]-4-METHYL-4-[4-(OXETAN-3-YL)PIPERAZIN-1-YL]PENT-2-ENENITRILE” (Principia Biopharma Inc., priority 2023, published 2025).
Where two headings read alike, the source gives them in different places.

Columns and labels:
ITP patients = details: cited from earlier work
adults with ITP = assay: response to prior ITP medication of adults enrolled in LUNA 3; type: in vivo, human; details: patients who received that medication
Text: Eligible patients had primary ITP for a duration of >3 months for adults (age ≥18 years) and >6 months for adolescent (age 12-17 years) and pediatric patients (age […]; EU only), and two average platelet counts <30×10^9/[…] within 2 weeks before treatment (Kuter et al. 2023).
Overall, 202 adults with a median age of 47 years (range, 18-80) enrolled from 154 study sites as of Sep. 28, 2023 (see Table 3); enrollment is complete for adults and ongoing for pediatrics. Most adults were female (63%), white (62%) or Asian (32%), and not Hispanic/Latino (77%). Geographic regions enrolling patients included Asia/Pacific (35% of patients), West Europe (24% of patients), South America (17% of patients), East Europe (16% of patients), and North America (8% of patients). Patients had ITP for a median duration of 7.7 years, with 75% having a duration >3 years. […] The most common prior ITP therapies were CS (96%), TPO-RA (66%), and IVIg ([…]); patients' prior responses are shown in Table 3.

251 kinases = assay: broad kinase enzyme inhibition panel; type: biochemical; details: 1 μM; of 251 kinases
[1] = target: B cell lymphocyte kinase (BLK) (Homo sapiens, UniProt P51451); assay: kinase enzyme inhibition, BLK; type: biochemical
[2] = target: T1, (Homo sapiens, UniProt P42681); assay: kinase enzyme inhibition, RLK; type: biochemical
T1 sequence (P42681 1-527): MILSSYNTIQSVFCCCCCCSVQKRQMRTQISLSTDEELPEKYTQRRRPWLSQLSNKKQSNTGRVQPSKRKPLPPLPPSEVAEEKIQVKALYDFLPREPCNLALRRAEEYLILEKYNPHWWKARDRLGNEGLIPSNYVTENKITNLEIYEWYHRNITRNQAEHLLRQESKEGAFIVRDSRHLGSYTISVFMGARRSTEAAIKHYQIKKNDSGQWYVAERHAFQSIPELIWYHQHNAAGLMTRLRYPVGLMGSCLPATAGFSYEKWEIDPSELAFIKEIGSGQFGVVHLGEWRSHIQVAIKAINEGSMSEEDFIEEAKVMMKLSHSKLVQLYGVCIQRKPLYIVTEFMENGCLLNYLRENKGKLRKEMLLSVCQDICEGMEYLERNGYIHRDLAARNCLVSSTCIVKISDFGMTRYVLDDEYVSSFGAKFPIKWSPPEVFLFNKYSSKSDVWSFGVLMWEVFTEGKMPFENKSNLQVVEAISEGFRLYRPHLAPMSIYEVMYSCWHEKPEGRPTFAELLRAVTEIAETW

[3] = tested on: adult patients with persistent or chronic ITP; assay: LUNA 3 phase 3 double-blind placebo-controlled study; details: for Number of weeks with platelet counts 50 × 10^9/L, LSmean (SE) / Number of weeks with platelet counts between ≥30 × 10^9/L and <50 × 10^9/L and at least doubled from baseline, LSmean (SE): absence of rescue medication; for Time to platelet response, Median (95% CI): N = 133
Fc receptor signaling = assay: antibody (IgG, IgE) mediated activation of immune cells in vitro; type: cell-based
mouse model of ITP = assay: mouse model of ITP; type: in vivo
human B cell activation = human B cell activation in vitro; type: cell-based
platelet aggregation = details: healthy volunteers or patients with ITP; cited from earlier work
[4] = tested on: patients with relapsed ITP; details: for median PVI: main treatment period
ERBB4 = ERBB4 (Homo sapiens, UniProt Q15303); assay: kinase enzyme inhibition, ERBB4; type: biochemical
other TEC family members = assay: preclinical assay of persistence of binding, other TEC family members
[5] = humans, oral administration; cited from earlier work
[6] = target: T2, bone marrow tyrosine kinase on chromosome X (BMX) (Homo sapiens, UniProt P51813); assay: kinase enzyme inhibition, BMX; type: biochemical
T2 sequence (P51813 1-675): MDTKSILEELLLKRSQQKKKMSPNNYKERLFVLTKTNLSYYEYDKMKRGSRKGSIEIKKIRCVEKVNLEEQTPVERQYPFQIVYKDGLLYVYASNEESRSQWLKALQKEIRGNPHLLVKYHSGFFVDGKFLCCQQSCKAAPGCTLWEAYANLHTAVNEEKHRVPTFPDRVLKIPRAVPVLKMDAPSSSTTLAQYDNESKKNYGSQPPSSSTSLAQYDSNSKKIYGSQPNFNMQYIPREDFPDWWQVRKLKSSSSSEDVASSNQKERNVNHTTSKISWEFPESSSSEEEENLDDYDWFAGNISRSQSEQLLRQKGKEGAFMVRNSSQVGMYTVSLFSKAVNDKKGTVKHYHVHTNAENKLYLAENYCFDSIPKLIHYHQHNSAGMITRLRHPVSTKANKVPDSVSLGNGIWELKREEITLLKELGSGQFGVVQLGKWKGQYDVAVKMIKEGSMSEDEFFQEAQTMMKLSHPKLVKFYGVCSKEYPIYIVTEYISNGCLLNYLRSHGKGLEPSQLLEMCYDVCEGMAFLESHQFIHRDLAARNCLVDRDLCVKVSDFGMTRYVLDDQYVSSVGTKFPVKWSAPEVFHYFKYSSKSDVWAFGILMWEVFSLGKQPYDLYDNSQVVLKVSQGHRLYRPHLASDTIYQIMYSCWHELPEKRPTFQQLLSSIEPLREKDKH

[7] = target: T3, tyrosine protein kinase TEC (Homo sapiens, UniProt P42680); assay: kinase enzyme inhibition, TEC; type: biochemical
T3 sequence (P42680 1-631): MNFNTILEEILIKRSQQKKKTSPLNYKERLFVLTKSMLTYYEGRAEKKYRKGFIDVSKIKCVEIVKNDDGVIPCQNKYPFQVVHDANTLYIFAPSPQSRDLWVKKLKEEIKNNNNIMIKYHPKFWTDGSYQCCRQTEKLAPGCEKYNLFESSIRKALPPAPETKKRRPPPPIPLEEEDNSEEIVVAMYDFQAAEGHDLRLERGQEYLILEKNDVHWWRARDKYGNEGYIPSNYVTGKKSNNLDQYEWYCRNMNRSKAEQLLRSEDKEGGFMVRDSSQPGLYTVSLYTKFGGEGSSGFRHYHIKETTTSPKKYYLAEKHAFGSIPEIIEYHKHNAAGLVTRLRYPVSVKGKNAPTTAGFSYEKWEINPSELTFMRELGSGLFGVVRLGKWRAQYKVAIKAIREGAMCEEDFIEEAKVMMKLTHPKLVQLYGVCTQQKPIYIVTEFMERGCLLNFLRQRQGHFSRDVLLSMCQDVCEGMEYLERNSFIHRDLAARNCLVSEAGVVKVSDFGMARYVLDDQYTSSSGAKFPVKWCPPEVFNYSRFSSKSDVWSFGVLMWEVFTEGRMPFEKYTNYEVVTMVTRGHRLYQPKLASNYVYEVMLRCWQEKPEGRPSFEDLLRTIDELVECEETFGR

BTK enzyme = BTK enzyme (Homo sapiens, UniProt Q06187); details: healthy volunteers, doses providing 100% BTK occupancy; cited from earlier work
[8] = 400 mg BID, 24-week blinded period
[9] = 400 mg BID, 24-week blinded period, listed as Rilzabrutinib

Chain of B cell lymphocyte kinase (BLK) (P51451 whole entry, species assumed): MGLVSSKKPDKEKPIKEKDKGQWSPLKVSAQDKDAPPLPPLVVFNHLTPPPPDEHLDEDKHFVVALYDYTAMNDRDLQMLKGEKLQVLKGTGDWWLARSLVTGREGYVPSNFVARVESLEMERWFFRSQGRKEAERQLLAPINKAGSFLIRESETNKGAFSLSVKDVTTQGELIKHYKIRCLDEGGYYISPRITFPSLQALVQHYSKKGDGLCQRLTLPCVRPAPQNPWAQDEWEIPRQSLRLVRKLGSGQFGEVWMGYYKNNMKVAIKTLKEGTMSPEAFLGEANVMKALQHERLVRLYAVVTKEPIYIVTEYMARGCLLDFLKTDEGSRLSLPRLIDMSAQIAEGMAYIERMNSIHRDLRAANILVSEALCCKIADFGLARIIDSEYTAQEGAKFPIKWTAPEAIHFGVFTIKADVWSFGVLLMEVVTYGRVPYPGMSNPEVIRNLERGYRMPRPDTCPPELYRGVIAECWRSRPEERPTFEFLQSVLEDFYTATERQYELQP
Chain of ERBB4 (Q15303 26-1308, species assumed): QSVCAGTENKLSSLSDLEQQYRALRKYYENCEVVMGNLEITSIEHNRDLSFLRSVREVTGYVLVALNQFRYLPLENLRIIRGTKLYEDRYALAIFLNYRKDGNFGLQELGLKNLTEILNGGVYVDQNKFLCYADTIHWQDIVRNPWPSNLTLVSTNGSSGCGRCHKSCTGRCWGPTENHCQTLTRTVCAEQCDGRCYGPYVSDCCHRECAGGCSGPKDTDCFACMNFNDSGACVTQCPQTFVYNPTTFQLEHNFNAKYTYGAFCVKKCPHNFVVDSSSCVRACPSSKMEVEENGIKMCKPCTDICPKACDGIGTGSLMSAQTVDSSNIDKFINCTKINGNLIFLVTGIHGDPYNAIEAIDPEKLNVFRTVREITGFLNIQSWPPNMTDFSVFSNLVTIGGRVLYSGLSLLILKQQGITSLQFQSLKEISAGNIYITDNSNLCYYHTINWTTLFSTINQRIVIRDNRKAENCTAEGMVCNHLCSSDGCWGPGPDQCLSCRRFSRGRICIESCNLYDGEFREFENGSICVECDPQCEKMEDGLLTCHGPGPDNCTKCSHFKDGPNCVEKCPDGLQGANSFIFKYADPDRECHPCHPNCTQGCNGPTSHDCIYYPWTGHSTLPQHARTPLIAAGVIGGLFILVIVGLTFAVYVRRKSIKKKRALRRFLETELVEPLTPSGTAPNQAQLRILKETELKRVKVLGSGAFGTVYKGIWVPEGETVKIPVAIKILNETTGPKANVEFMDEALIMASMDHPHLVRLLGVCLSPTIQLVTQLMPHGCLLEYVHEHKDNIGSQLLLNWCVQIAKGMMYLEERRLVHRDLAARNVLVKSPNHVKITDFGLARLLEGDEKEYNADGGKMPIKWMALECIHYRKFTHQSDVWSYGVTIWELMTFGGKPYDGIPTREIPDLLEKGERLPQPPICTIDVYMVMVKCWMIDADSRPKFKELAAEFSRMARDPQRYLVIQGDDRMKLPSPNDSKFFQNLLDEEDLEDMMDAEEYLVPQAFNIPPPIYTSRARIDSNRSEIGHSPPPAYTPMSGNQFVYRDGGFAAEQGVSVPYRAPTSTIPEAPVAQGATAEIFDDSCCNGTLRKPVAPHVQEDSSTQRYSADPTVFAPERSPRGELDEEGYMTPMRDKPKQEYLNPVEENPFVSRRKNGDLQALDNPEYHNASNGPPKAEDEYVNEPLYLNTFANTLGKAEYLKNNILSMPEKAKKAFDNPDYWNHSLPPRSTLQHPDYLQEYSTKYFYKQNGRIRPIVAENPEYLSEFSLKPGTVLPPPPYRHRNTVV
Chain of BTK enzyme (Q06187 whole entry): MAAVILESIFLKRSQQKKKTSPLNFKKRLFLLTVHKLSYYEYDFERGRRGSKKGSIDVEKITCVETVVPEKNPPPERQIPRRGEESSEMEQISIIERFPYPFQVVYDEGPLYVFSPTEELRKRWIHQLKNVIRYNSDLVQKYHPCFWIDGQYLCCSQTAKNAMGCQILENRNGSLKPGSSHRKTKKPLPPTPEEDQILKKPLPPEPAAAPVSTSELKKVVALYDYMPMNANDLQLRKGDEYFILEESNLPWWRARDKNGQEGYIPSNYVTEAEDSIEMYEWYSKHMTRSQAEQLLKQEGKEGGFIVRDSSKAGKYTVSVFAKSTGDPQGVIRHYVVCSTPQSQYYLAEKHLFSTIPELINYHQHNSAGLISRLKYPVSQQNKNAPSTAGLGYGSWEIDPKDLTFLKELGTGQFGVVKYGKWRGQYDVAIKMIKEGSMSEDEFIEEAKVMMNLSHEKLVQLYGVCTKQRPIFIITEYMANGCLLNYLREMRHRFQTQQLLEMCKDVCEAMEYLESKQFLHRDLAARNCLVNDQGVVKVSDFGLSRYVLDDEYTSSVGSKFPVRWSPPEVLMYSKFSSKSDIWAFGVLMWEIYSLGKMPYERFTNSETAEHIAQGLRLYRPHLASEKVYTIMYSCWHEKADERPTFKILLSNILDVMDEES

COc1cc(Nc2ncc(F)c(Nc3ccc4c(n3)N(COP(=O)(O)O)C(=O)C(C)(C)O4)n2)cc(OC)c1OC [fostamatinib]
durable response rate (ITP patients; heavily pretreated ITP patients): ~18% | Response to prior ITP medication (resulted in platelet count ≥50 × 10^9/L), % (adults with ITP): (30) % | Response to prior ITP medication (resulted in platelet count ≥50 × 10^9/L), n/n (adults with ITP): 7/23

Rituximab: Anti-CD20 monoclonal antibody, second line ITP therapy
durable on-treatment response rates (ITP patients; ITP, second line therapy): 60-80% | Response to prior ITP medication (resulted in platelet count ≥50 × 10^9/L), % (adults with ITP): (32) % | Response to prior ITP medication (resulted in platelet count ≥50 × 10^9/L), n/n (adults with ITP): 22/68

CC(C)(C=C(C#N)C(=O)N1CCC[C@@H](n2nc(-c3ccc(Oc4ccccc4)cc3F)c3c(N)ncnc32)C1)N1CCN(C2COC2)CC1 (mixture of isomers) [rilzabrutinib, (R)-2-[3-[4-amino-3-(2-fluoro-4-phenoxy-phenyl)pyrazolo[3,4-d]pyrimidin-1-yl]piperidine-1-carbonyl]-4-methyl-4-[4-(oxetan-3-yl)piperazin-1-yl]pent-2-enenitrile]
number of kinases with >90% inhibition (251 kinases): 6 | IC50 [1]: 6.3 nM | IC50 [2]: 1.2 nM | day by which 25% of participants achieved a platelet response ([3]; 400 mg BID): 10 days | median time to rescue therapy ([3]; 400 mg BID): never reached the median | Number of weeks with platelet counts 50 × 10^9/L, LSmean Difference (95% CI) vs placebo [3, 8]: 6.46 (4.923, 7.990) weeks | Number of weeks with platelet counts between ≥30 × 10^9/L and <50 × 10^9/L and at least doubled from baseline, LSmean Difference (95% CI) vs placebo [3, 8]: 6.31 (4.787, 7.831) weeks | Number of weeks with platelet counts 50 × 10^9/L, LSmean (SE) [3, 8]: 7 weeks | Number of weeks with platelet counts between ≥30 × 10^9/L and <50 × 10^9/L and at least doubled from baseline, LSmean (SE) [3, 8]: 7 weeks | Number of weeks with platelet counts 50 × 10^9/L, LSmean (SE) [3, 9]: 7.18 (0.747) weeks | Number of weeks with platelet counts between ≥30 × 10^9/L and <50 × 10^9/L and at least doubled from baseline, LSmean (SE) [3, 9]: 6.95 (0.749) weeks | Durable response, Difference (95% CI) vs placebo ([3]; 400 mg BID, 24-week double-blind period): 23.1 (15.95, 30.31) % | Time to platelet response, Median (95% CI) ([3]; 400 mg BID): 36 days | Time to platelet response, Median (95% CI) ([3]; 400 mg BID, listed as Rilzabrutinib): 36 (22, 44) days | tolerability ([3]; 400 mg BID, adult patients with ITP): generally well tolerated | reduction in the need for rescue therapy ([3]; 400 mg BID, vs placebo): 52% | ITP-PAQ physical fatigue score, Change from baseline, LSmean Difference (95% CI) vs placebo ([3]; At Week 13): 8.08 (1.818, 14.337) | ITP-PAQ physical fatigue score, Change from baseline, LSmean (SE) ([3]; At Week 13, 400 mg BID): 7.95 (2.132) | Bleeding as assessed by IBLS, Change from baseline, LSmean Difference (95% CI) vs placebo ([3]; At Week 25): −0.087 (−0.1358, −0.0373) | ITP-PAQ physical fatigue score, Change from baseline, LSmean Difference (95% CI) vs placebo ([3]; At Week 25): 11.95 (5.416, 18.493) | Bleeding as assessed by IBLS, Change from baseline, LSmean (SE) ([3]; At Week 25, 400 mg BID): −0.040 (0.0169) | ITP-PAQ physical fatigue score, Change from baseline, LSmean (SE) ([3]; At Week 25, 400 mg BID): 4.69 (2.263) | Bleeding as assessed by IBLS, Change from baseline, LSmean (SE) ([3]; At Week 25, 400 mg BID, listed as Rilzabrutinib): −0.040 (0.0169) ^ | TEAE diarrhea, participants ([3]; rilzabrutinib arm): 32.3% | TEAE headache, participants ([3]; rilzabrutinib arm): 18% | TEAE nausea, participants ([3]; rilzabrutinib arm): 20.3% | antibody (IgG, IgE) mediated activation of immune cells via Fc receptor signaling (Fc receptor signaling): blocks | platelet-loss (consumption) (mouse model of ITP): significant dose dependent reduction | human B cell activation (human B cell activation): profoundly inhibits | effect on platelet aggregation (platelet aggregation): does not alter platelet aggregation | tolerability ([4]; Part A): generally well tolerated | bleeding (IBLS score) ([4]; Part B): no evidence of increased bleeding | median platelet counts maintained ([4]; Part B, 400 mg BID, throughout main treatment period and LTE): ≥ 5e+10 µL⁻¹ | HRQOL ([4]; Part B, multiple individual and overall HRQOL health domains): Clinically meaningful improvements | median PVI ([4]; non-responding patients): 3 | median PVI ([4]; responding patients): 2 | IC50 (ERBB4): 11 nM | binding to other TEC family members over time (other TEC family members): decayed rapidly over time | absorption [5]: rapidly absorbed | half-life [5]: 3 to 4 h | IC50 [6]: 1 nM | IC50 [7]: 0.8 nM

C=CC(=O)Nc1cccc(Nc2nc(Nc3ccc(OCCOC)cc3)ncc2F)c1 [CC-292]
tolerability (BTK enzyme): well tolerated
